# Measurements from patent US20100179130A1, “USE OF PIPERINE AND DERIVATIVES THEREOF FOR THE THERAPY OF NEUROLOGICAL CONDITIONS” (SYNGIS Bioscience GmbH & Co. KG, priority 2007, published 2010).
# Assays:
# SH-SY5Y neuronal cells = test: In vitro anti-apoptosis assay, staurosporine induced apoptosis, Caspase-Glo 3/7; format: cell-based, human
# rat MCAO model = test: Rat MCAO (filament) model for stroke, infarct volume by TTC staining
# mouse SCI model = test: Mouse spinal cord injury (SCI) model, Basso-Mouse-Score; format: in vivo; details: i.p. 10 mg/kg, then 20 mg/kg on two days, plus 1 mg/kg daily s.c. over 2 weeks; day 1-35
# Description: Female mice at 2 months of age were anesthetized using inhalation anesthesia (1% Halothane/30% N20/70% O2). After laminectomy at the vertebral level Th8/9, the spinal cord was dorsally transected to ˜80% with fine iridectomy scissors leaving a ventral tissue bridge intact as previously described (Demjen et al. Nat Med 2004; 10: 389-395). The animals were treated postoperatively with gentamycin (i.p., 1 mg/kg bodyweight) once a day for 7 days. Bladders were emptied manually until restoration of autonomic bladder function. In the treatment experiment, C57BL/6 wild-type mice (n=20) received i.p. piperine during the operation (10 mg/kg bodyweight) and on the two following days (20 mg/kg bodyweight, each time. Further, the mice received a daily dose of 1 mg/kg bodyweight by continuous s.c. application over 2 weeks via an osmotic minipump (Alzet). Control group (sham, n=20) was treated accordingly but received only vehicle (20% Solutol-HS15). Piperine was solved in 20% Solutol-HS15 as described in Example 7. All animal experiments were approved by the ethical authorities. As a measurement for the outcome the Basso-Mouse-Score (BMS) (Basso et al. J Neurotrauma 2006; 23: 635-659) was determined at day 1, 7, 14, 21, 28, and 35 after operation. The BMS scores a value between 0 (no movement of the hind limbs) to 9 (healthy mouse).
compound,measurement,setting,value
"O=C(/C=C/C=C/c1ccc2c(c1)OCO2)N1CCCCC1 [Piperine, (E,E)-1-[5-(1,3-benzodioxol-5-yl)-1-oxo-2,4-pentadienyl]piperidine]",degree of apoptosis relative to the staurosporine control,"SH-SY5Y neuronal cells; compound 1 μM in the presence of staurosporine 0.1 μM, SH-SY5Y",66%
same,reduction of the staurosporine induced apoptosis,"SH-SY5Y neuronal cells; piperine 100 μM to 10 μM with staurosporine 0.1 μM, 5 h",significant reduction
same,apoptotic effect by themselves,SH-SY5Y neuronal cells; without staurosporine,neither piperine nor derivatives thereof exhibited an apoptotic effect by themselves
same,total edema-corrected infarct size,"rat MCAO model; 10 mg/kg i.v. 30 min after onset of occlusion, 24 h, mean ± SEM, n=30, p=0.031 vs vehicle",151±17 mm^3
same,"edema-corrected infarct volume, subcortical areas","rat MCAO model; 10 mg/kg i.v. 30 min after onset of occlusion, 24 h, mean ± SEM, not statistically significant",78±6 mm^3
same,"edema-corrected infarct volume, cortex","rat MCAO model; 10 mg/kg i.v. 30 min after onset of occlusion, 24 h, mean ± SEM, p=0.018 vs vehicle",73±14 mm^3
same,tolerability of the treatment,"rat MCAO model; 10 mg/kg i.v., rat",well tolerated
same,outcome of experimental SCI (Basso-Mouse-Score),mouse SCI model,clearly improved the outcome
